Laboratory results taken from patent US8415272B2, “Quinoline derivatives and their use as fungicides” (Syngenta Crop Protection LLC, priority 2008, dated 2013).

Legend:
Septoria tritici = test: Growth inhibition in nutrient broth, Septoria tritici (leaf blotch), photometric; type: cell-based; settings: Zymoseptoria tritici, PDB broth, 24 C, 72 hrs, read-out: control of fungal infection, Septoria tritici
Pyricularia oryzae = test: whole plant or invertebrate; type: in vivo; settings: foliar, 96 h, read-out: control of fungal infection, Pyricularia oryzae
Phytophthora infestans = test: whole plant or invertebrate; type: in vivo; settings: in Solanum lycopersicum, foliar, 96 h, read-out: control of fungal infection, Phytophthora infestans
Fusarium culmorum = test: Growth inhibition in nutrient broth, Fusarium culmorum (root rot), photometric; type: cell-based; settings: 48 h, read-out: control of fungal infection, Fusarium culmorum
Method in brief: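 Fusarium culmorum conidia in potato dextrose broth were added to compounds in DMSO. Plates were incubated at 24 C for 48 hrs, with growth inhibition read photometrically. […]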

Pyrenophora teres = test: Leaf disk assay, Pyrenophora teres (barley net blotch), preventive; type: in vivo; settings: foliar, 96 h, barley leaf segments, assessed four days after inoculation, read-out: control of fungal infection, Pyrenophora teres
Method in brief: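 Barley leaf segments on agar were sprayed with compound at 200 ppm (from DMSO stock diluted in water) and dried for 12-24 h before inoculation with a Pyrenophora teres spore suspension. Preventive fungicidal activity was scored 4 days after inoculation.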

Septoria nodorum = test: Leaf disk assay, Septoria nodorum (wheat glume blotch), preventive; type: in vivo; settings: Parastagonospora nodorum, foliar, 96 h, wheat leaf segments, assessed four days after inoculation, read-out: control of fungal infection, Septoria nodorum
Plasmopara viticola = test: Leaf disk assay, Plasmopara viticola (downy mildew of grapevine), preventive; type: in vivo; settings: foliar, 168 h, grapevine leaf disks, assessed seven days after inoculation, read-out: control of fungal infection, Plasmopara viticola
Pythium ultimum = test: Growth inhibition in potato dextrose broth, Pythium ultimum (damping off), photometric; type: cell-based; settings: Globisporangium ultimum, 24° C., 48 hours, read-out: control of fungal infection, Pythium ultimum
Method in brief: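 Growth inhibition was read photometrically at 48 hours after incubation at 24° C. Test compound was diluted from DMSO to 20 ppm in water and combined with potato dextrose broth seeded with Pythium ultimum mycelial fragments.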

Botrytis cinerea = test: Leaf disk assay, Botrytis cinerea (grey mould) on bean, preventive; type: in vivo; settings: foliar, 96 h, bean leaf disks, assessed four days after inoculation, read-out: control of fungal infection, Botrytis cinerea
[1] = system: Erysiphe graminis f.sp. tritici; test: Leaf disk assay, Erysiphe graminis f.sp. tritici (wheat powdery mildew), preventive; type: in vivo; settings: Blumeria graminis, foliar, 96 h, wheat leaf segments, assessed four days after inoculation, read-out: control of fungal infection, Erysiphe graminis f.sp. tritici
Method in brief: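 Preventive protocol: compound at 200 ppm in water (from DMSO) sprayed onto wheat leaf segments on agar, dried 12–24 h, then spore-inoculated. Fungicidal activity was assessed four days post-inoculation.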

[2] = system: Puccinia recondita f.sp. tritici; test: Leaf disk assay, Puccinia recondita f.sp. tritici (wheat brown rust), preventive; type: in vivo; settings: foliar, 216 h, wheat leaf segments, assessed nine days after inoculation, read-out: control of fungal infection, Puccinia recondita f.sp. tritici

C#Cc1cnc2c(C)cc(OC(SC)C(=O)NC(C)(C)C#C)cc2c1 (stereo not drawn) [Example 7]
≥ 60%: inhibition of growth at 60 ppm (Septoria tritici) | pest or weed control at 200 ppm (Pyricularia oryzae) | pest or weed control at 200 ppm (Phytophthora infestans) | inhibition of growth at 60 ppm (Fusarium culmorum) | pest or weed control at 200 ppm (Pyrenophora teres) | pest or weed control at 200 ppm (Septoria nodorum) | pest or weed control at 200 ppm (Plasmopara viticola) | inhibition of growth at 20 ppm (Pythium ultimum)

C#Cc1cnc2c(C)cc(OC(SC)C(=O)NC(C)(C)C#CC)cc2c1 (stereo not drawn) [Example 8]
≥ 60%: inhibition of growth at 60 ppm (Septoria tritici) | pest or weed control at 200 ppm (Pyricularia oryzae) | pest or weed control at 200 ppm (Phytophthora infestans) | inhibition of growth at 60 ppm (Fusarium culmorum) | pest or weed control at 200 ppm (Pyrenophora teres) | pest or weed control at 200 ppm (Septoria nodorum) | pest or weed control at 200 ppm (Plasmopara viticola) | inhibition of growth at 20 ppm (Pythium ultimum) | pest or weed control at 200 ppm (Botrytis cinerea)

C#Cc1cnc2c(C)cc(OC(SC)C(=O)NC(C)(C)C#CCOC)cc2c1 (stereo not drawn) [Example 9]
≥ 60%: inhibition of growth at 60 ppm (Septoria tritici) | pest or weed control at 200 ppm (Pyricularia oryzae) | pest or weed control at 200 ppm [1] | pest or weed control at 200 ppm (Phytophthora infestans) | inhibition of growth at 60 ppm (Fusarium culmorum) | pest or weed control at 200 ppm (Septoria nodorum) | pest or weed control at 200 ppm (Plasmopara viticola) | inhibition of growth at 20 ppm (Pythium ultimum) | pest or weed control at 200 ppm [2]

C#CCOCC#CC(C)(C)NC(=O)C(Oc1cc(C)c2ncc(C#C)cc2c1)SC (stereo not drawn) [Example 10]
≥ 60%: inhibition of growth at 60 ppm (Septoria tritici) | pest or weed control at 200 ppm (Pyricularia oryzae) | pest or weed control at 200 ppm [1] | pest or weed control at 200 ppm (Phytophthora infestans) | inhibition of growth at 60 ppm (Fusarium culmorum) | pest or weed control at 200 ppm (Septoria nodorum) | pest or weed control at 200 ppm (Plasmopara viticola) | inhibition of growth at 20 ppm (Pythium ultimum)

C#Cc1cnc2c(C)cc(OC(SC)C(=O)NC(C)(C)COC)cc2c1 (stereo not drawn) [Example 13]
≥ 60%: inhibition of growth at 60 ppm (Septoria tritici) | pest or weed control at 200 ppm (Pyricularia oryzae) | pest or weed control at 200 ppm [1] | pest or weed control at 200 ppm (Phytophthora infestans) | inhibition of growth at 60 ppm (Fusarium culmorum) | pest or weed control at 200 ppm (Pyrenophora teres) | pest or weed control at 200 ppm (Septoria nodorum) | pest or weed control at 200 ppm (Plasmopara viticola) | inhibition of growth at 20 ppm (Pythium ultimum) | pest or weed control at 200 ppm (Botrytis cinerea) | pest or weed control at 200 ppm [2]

C#CCOCC(C)(C)NC(=O)C(Oc1cc(C)c2ncc(C#C)cc2c1)SC (stereo not drawn) [Example 14]
≥ 60%: inhibition of growth at 60 ppm (Septoria tritici) | pest or weed control at 200 ppm (Pyricularia oryzae) | pest or weed control at 200 ppm [1] | pest or weed control at 200 ppm (Phytophthora infestans) | inhibition of growth at 60 ppm (Fusarium culmorum) | pest or weed control at 200 ppm (Pyrenophora teres) | pest or weed control at 200 ppm (Septoria nodorum) | pest or weed control at 200 ppm (Plasmopara viticola) | inhibition of growth at 20 ppm (Pythium ultimum) | pest or weed control at 200 ppm (Botrytis cinerea) | pest or weed control at 200 ppm [2]

C#CCC(C)(C)NC(=O)C(Oc1cc(C)c2ncc(C#C)cc2c1)SC (stereo not drawn) [Example 16]
≥ 60%: inhibition of growth at 60 ppm (Septoria tritici) | pest or weed control at 200 ppm (Pyricularia oryzae) | pest or weed control at 200 ppm [1] | pest or weed control at 200 ppm (Phytophthora infestans) | inhibition of growth at 60 ppm (Fusarium culmorum) | pest or weed control at 200 ppm (Pyrenophora teres) | pest or weed control at 200 ppm (Septoria nodorum) | pest or weed control at 200 ppm (Plasmopara viticola) | inhibition of growth at 20 ppm (Pythium ultimum) | pest or weed control at 200 ppm [2]
